Reference: patent US12133846B2, “Electrophilic androgen receptor (AR) antagonists for AR downregulation and ferroptosis induction in cancer cells” (priority 2019, dated 2024)
pIC50: −log10 of the molar value.

Experiments:
[1] = tested on: AR transcriptional activity in MDA-kb2 cells; assay: cells; format: cell-based; details: DHT 1 nM
Procedure: MDA-kb2-cell-based ARE luciferase assays were performed to assess the influence of 2-63 and related compounds on AR transcriptional activity. […] Upon androgen stimulation and addition of a luciferase substrate, […], and the intensity is proportional to the extent of AR activation. An agent that either antagonistically competes with DHT for AR binding or reduces the expression of AR diminishes luciferase activity/fluorescence signal in this experimental system. […] 10b (an alcohol) and 11 b (an azide) are synthetic precursors of the ITC hybrid 12b.
Luciferase Assay. […] For all procedures, cells were incubated at CO2 free condition. Steady-Glo® (Promega Corp., Madison, WI) reagent was added to culture media with shaking for 10 min. Samples (100 μL) were transferred to an opaque 96-well white plate, and luminescence was measured using a luminometer.

[2] = tested on: AR, AR-V7, c-Myc, HO-1, Hsp70; assay: Western blotting under BSO combination, VCaP cells; format: cell-based; details: VCaP, 2-63 2.5 μM plus BSO 100 μM
Procedure: It was first investigated if iron chelators or antioxidants could rescue the viability of drug combination-treated cells. […] HO-1 catalyzes the decomposition of heme into carbon monoxide, biliverdin, and Fe^2+. […] Both Fer-1 and the lipophilic antioxidant α-Toc can effectively scavenge radicals in phosphatidylcholine lipid bilayers and break the redox cycle that generates lipid hydroperoxide.
(§1) Western Blotting. […] Proteins in cell lysates (40 μg) were separated using electrophoresis on SDS-PAGE and transferred onto PVDF (polyvinylidenedifluoride) membranes. Membranes were blocked in 5% fat-free milk followed by incubation with primary antibodies overnight at 4° C., and the secondary horseradish peroxidase-conjugated anti-rabbit or anti-mouse antibodies. The blots were developed in the Enhanced Chemiluminescence mixture and detected by ImageQuant™ LAS 4000 imaging system (GE). Density of protein bonds were calculated and analyzed by using imageJ software downloaded from the National Institute of Health website.

Hsp90, Hsp70, HO-1 = assay: Western blotting of Hsp90, Hsp70 and HO-1 in VCaP cells; format: cell-based
Procedure: as §1

VCaP cells [3] = assay: BSO pretreatment plus drug, MTT viability, VCaP cells
Procedure: (§3) Cell viability was then assessed using an MTT assay.
(§4) PCa cells (6×10^3 cells/well) were seeded into 96-well plates overnight and then treated with indicated compounds at indicated concentrations and time durations. The MTT (3-(4, 5-Dimethylthiazol-2-yl)-2,5-diphenyltetrazolium bromide) assay was performed according to the standard protocol. Briefly, MTT (0.5 mg/mL) was incubated with cells at 37° C. for 3 hours. Supernatant was removed, followed by the addition of dimethyl DMSO (100 μl). After incubation for 30 minutes at 37° C., absorbance was read at 570 nm on a microplate reader.

LNCaP and RWPE-1 cells = assay: MTT viability, PCa LNCaP versus non-cancerous RWPE-1 cells; format: cell-based; details: 72 h, 2.5 to 10 μM
Excerpt: Because of the better selectivity and water solubility of 2-63 over 12b, 2-63 was used for further in vitro characterization and mechanistic studies.

RWPE-1 cells = assay: BSO pretreatment plus 2-63, MTT viability, RWPE-1 cells; details: BSO 100 μM plus 2-63 5 μM, 24 h
Procedure: as §3, §4

[4] = Polarity/water solubility by retention on C18 reversed-phase HPLC; format: physicochemical; details: shorter retention time on C18 reversed-phase HPLC column
Procedure: NAC conjugate 2-63 gradually releases free ITC 12b under physiological condition. The NAC conjugate of ITC could reversibly form free ITCs in aqueous solution (Zhang, Y., Carcinogenesis 2012, 33, 2-9). To test this possibility on the setting of ITC-ARi, 2-63 (50 μM) was dissolved in PBS at physiological pH (7.4), and its decomposition was monitored at 37° C. using HPLC. […] 2-63, therefore, can be viewed as a more water-soluble prodrug of 12b when it is used in cell culture or administrated in vivo. This NAC conjugation approach avoids acute/instant electrophilic insult and can constrain the concentration of electrophilic ITC within certain levels. Since non-cancerous cells usually have a larger GSH/antioxidant pool to neutralize electrophilic/oxidative attack (Trachootham, et al., Cancer Cell 2006, 10, 241-252), different tolerability to 2-63 could be seen between cancerous and noncancerous cells.

FL AR and AR-V7 = assay: Cycloheximide chase of AR protein stability in VCaP cells; format: cell-based; details: cycloheximide 25 μg/mL, 2-63 10 μM, 2-16 h
Procedure: FL AR is a client protein of Hsp90, and AR-V7 might be chaperoned by Hsps other than Hsp90 (Moses, et al., Cancer Res. 2018, 78, 4022-4035). Because Hsp70 upregulation is an indicator of heat shock protein disruption (Kitson, et al., Nat. Chem. 2013, 5, 307-314) that causes client protein degradation, it was assessed whether 2-63 could change the protein stability of AR and AR-V7. […] 2-63-induced AR/AR-V7 downregulation was partially rescued by the proteasome inhibitor MG-132 (data not shown). This supports the involvement of proteasome degradation in AR reduction. Besides the posttranslational mechanisms, AR downregulation could also be caused by suppressing transcription factors (TFs) that drive the transcription of the AR gene. Sp1 and c-Myc were selected as representatives that could be affected by 2-63. Multiple Sp1 binding sites are located near the transcriptional initiation region of the AR gene.
Western Blotting. […] The protein concentration of supernatants was determined using the Pierce BCA Protein Assay Kit (Thermo Fisher, Cat #23225). […] The blots were developed in the Enhanced Chemiluminescence mixture and detected by ImageQuant™ LAS 4000 imaging system (GE). Density of protein bonds were calculated and analyzed by using imageJ software downloaded from the National Institute of Health website.

22Rv1 cells = assay: MTT viability assay, 22Rv1 cells; format: cell-based; details: 5 μM, 72 h
Excerpt: (§2) Biological Characterization. ITC-ARi hybrid drugs effectively reduce the viability of PCa cells. By using an MTT assay, it was first examined if the newly synthesized hybrid drugs affect the viability of CRPC-relevant PCa cells. PCa VCaP cells naturally express abundant wild type FL AR as well as AR splice variants (e.g., AR-V7). These cells were, therefore, used as one of the cell culture models in this work to investigate the drug-caused viability loss and AR downregulation.

VCaP cells [5] = assay: MTT viability assay, VCaP cells; format: cell-based; details: Homo sapiens, VCaP, 72 h, read-out: IC50, viability of VCaP cells
Excerpt: as §2

For CC(=O)N[C@H](CSC(=S)NCCCCCCc1ccc(N2C(=S)N(c3ccc(C#N)c(C(F)(F)F)c3)C(=O)C2(C)C)cn1)C(=O)O [2-63, N-acetyl-S-((6-(5-(3-(4-cyano-3-(trifluoromethyl)phenyl)-5,5-dimethyl-4-oxo-2-thioxoimidazolidin-1-yl)pyridine-2-yl)hexyl)carbamothioyl)-D-cysteine], the “AR inhibition at 1 μM relative to Enz, 10b and 11b” value ([1]; 1 μM) was “less effective”, the “suppression of DHT-stimulated luciferase activity” value ([1]; 1-5 μM) was “decreased luciferase activity in a dose-dependent manner” and the “AR inhibition at higher concentrations relative to comparators” value ([1]; 2.5 and 5 μM) was “similarly with these non-ITC-containing compounds”. The “AR/AR-V7, c-Myc and HO-1 expression versus individual drugs” value [2] was “more effectively downregulated AR/AR-V7 and c-Myc and upregulated the cellular stress marker HO-1”, the “Hsp70 and HO-1 in time course” value (Hsp90, Hsp70, HO-1; 10 μM, 12 h time course) was “notably increased after 6 h” and the HO-1 protein level (Hsp90, Hsp70, HO-1; 16 h, 5 and 15 μM) was “dose-dependently upregulated”. For the same compound, the Hsp70 protein level (Hsp90, Hsp70, HO-1; 16 h, 5 and 15 μM) was “significantly induced”, the Hsp90 protein level (Hsp90, Hsp70, HO-1; 16 h, 5 and 15 μM) was “did not change” and the “combinatorial effect with BSO (interaction index), VCaP” value (VCaP cells [3]; BSO 2.5-10 μM 16 h pretreatment, then 2-63 1-10 μM 24 h, synergism = index <0.8) was “synergistically reduced viability”. The “viability suppression, VCaP cells” value (VCaP cells [3]; BSO plus 2-63 reduced to 2.5 μM, 24 h) was 60%, the “differential anti-proliferative effect, LNCaP vs RWPE-1 cells” value (LNCaP and RWPE-1 cells) was “more tolerated by RWPE-1 cells” and the “viability of RWPE-1 cells remaining” value (RWPE-1 cells) was “Eighty”. For the same compound, the “polarity/water solubility of 2-63 over 12b” value [4] was “greatly improves”, the “stability of FL AR and AR-V7 proteins” value (FL AR and AR-V7) was “significantly reduced” and the “relative potency in viability reduction, 22Rv1 cells” value (22Rv1 cells) was 12b>2-63>PEITC-NAC. For the same compound, the pIC50 (VCaP cells [5]) was 5.22.
